{"source": "PubChem BioAssay AID652059", "about": "(Broad Institute, 2013)", "tested_on": "D54 ERlucT glioma cells, NLG luciferase reporter, 24 h", "test": "N-linked glycosylation inhibitors, luciferase reporter cells, dose response, cell-based, D54 ERlucT glioma, dry powder, set 5 (AID 652059)"}
{"molecule": "CC(=O)N[C@H]1[C@@H](O[C@@H]2OC(C[C@@H](O)C3O[C@@H](n4ccc(=O)[nH]c4=O)[C@H](O)[C@@H]3O)[C@H](O)[C@H](O)[C@H]2NC(=O)/C=C/CCCCCCCCCCC(C)C)O[C@H](CO)[C@@H](O)[C@@H]1O", "note": "(stereo partly specified)", "values": [{"measurement": "AC40", "value": 520, "unit": "nM"}]}
